Values after ≈ are worked out from the molar mass of the structure shown.
Experiments:
CXCL8 (IL-8) = experiment: P. acnes-induced IL-8 gene on human PBMCs (qPCR); format: cell-based; conditions: PBMC, PBMCs + live P. acnes 1:1, test material 30 PM, 24 hours
Experimental: (§1) Cryopreserved human Peripheral Blood Mononuclear cells (PBMCs) from healthy adult donors were obtained from Zen Bio, Inc (Cat No. SER-PBMC-F). Cells were cultured in 12-well plates with lymphocyte media (Cat No. LYMPH-1) and incubated with test materials ([…]) and live P. acnes (ATCC® 6919TM) at 1:1 PBMC: P. acnes bacteria ratio for 24 hours at 37° C. and 5% CO2. After incubation, cell media supernatants were harvested and used to measure pro-inflammatory cytokine levels (IL-8, TNF-α, IL-1b, IL-17) using ELISA kits (BD Biosciences® #557966, #555212, #555244; R&D Systems® #DY317). Total RNA was extracted from cells using the RNAqueous® kit (Ambion®; Cat No. 1912) and cDNA was obtained using the High Capacity RNA-to-cDNA kit (Applied Biosystems®; Cat No. 4387406). Quantitative PCR (qPCR) was performed using the TaqMan® Fast Advanced Master Mix (Applied Biosystems®; Cat No. 4444556) and specific TaqMan®-probes human gene primers CXCL8 (IL-8), IL1B (IL-1b), TNF (TNF-α), IL17A (IL-17A) and GAPDH to calculate the relative gene fold expression change per treatment. Gene expression analysis was performed using the comparative Ct method (also known as the 2-[delta][delta]Ct) approach by comparing the Ct values of P. acnes-only treated cells with the untreated samples and normalized to GAPDH gene expression as endogenous housekeeping gene.

P. acnes (ATCC 6919) = experiment: Minimal inhibitory concentration (MIC) against P. acnes; format: cell-based, Propionibacterium acnes; conditions: Cutibacterium acnes, ATCC6919, 72 h, P. acnes ATCC 6919, 10^6 CFU/mL, read-out: MIC
Experimental: To determine minimal inhibitory concentration (MIC), reagents were dissolved in vehicle (5% v/v) and then added to bacteria suspension. P. acnes (ATCC® 6919TM) at 10^6 CFU/mL was incubated with test materials at the concentrations of two-fold serial dilution (0.25-500 μg/mL) and incubated for 72 hours (P. acnes).

IL1B (IL-1b) = experiment: P. acnes-induced IL-1b gene on human PBMCs (qPCR); format: cell-based; conditions: PBMC, PBMCs + live P. acnes 1:1, test material 30 PM, 24 hours
Experimental: as §1

IL17A (IL-17A) = experiment: P. acnes-induced IL-17 gene on human PBMCs (qPCR); format: cell-based; conditions: PBMC, PBMCs + live P. acnes 1:1, test material 30 PM, 24 hours
Experimental: as §1

TNF (TNF-α) = experiment: P. acnes-induced TNF-α gene on human PBMCs (qPCR); format: cell-based; conditions: PBMC, PBMCs + live P. acnes 1:1, test material 30 PM, 24 hours, read-out: TNFa-Gene % inhibition
Experimental: as §1

IL-4 = experiment: T-cell receptor (anti-CD3/CD28)-induced IL-4 on PBMCs; format: cell-based; conditions: Homo sapiens, PBMC, anti-CD3/CD28 beads, 24 hours, ELISA, read-out: TCR-PBMCs IL-4 Protein IC50
Experimental: (§2) Cryopreserved human Peripheral Blood Mononuclear cells (PBMCs) from healthy adult donors were obtained from Zen Bio, Inc (Cat No. SER-PBMC-F). Cells were cultured in 96-well plates with lymphocyte media (Cat No. LYMPH-1) and were pre-treated with test materials (≤100 μM) for 2 hours and later co-treated with test materials and anti-CD3/CD28 beads (Thermo-Fisher; Cat No. 11131D) at 1:0.4 PBMC:bead ratio for 24 hours at 37° C. and 5% CO2. After incubation, cell media supernatants were harvested and used to measure cytokine levels (IL-4, IL-5, IL-10) using ELISA kits (BD Biosciences® #555194, #555157; R&D Systems® #DY317). Results were represented as percent of inhibition relative to untreated and anti-CD3/CD28 beads-only treated cells. IC50 values were determined by non-linear regression analysis using the four-parameter logistic equation.

Balb/C mice = experiment: Oxazolone-induced delayed-type hypersensitivity (DTH) in vivo model; conditions: Mus musculus, topical to ears @ 3% w/v, 24 hours, read-out: Edema % inhibition
Experimental: Inbred male Balb/C mice were purchased from Hilltop Lab Animals (Scottdale, PA) and were used between 8 and 10 weeks of age. Mice backs were shaved and 100 μl of 3% v/v Oxazolone (Sigma Aldrich, Cat No. E0753) in acetone/olive oil (4:1) was applied to dorsal skin for sensitization. On Day 7, ears were challenged with 0.5% v/v Oxazolone and 30 minutes after challenge, test materials at 3% w/v were applied to ears (10 μl applied both to the dorsal and ventral surfaces of the mouse ear using a solvent pipette) and 24 hours later, skin thickness (edema) was measured. A 6-mm punch biopsy was obtained from each ear, snap frozen in liquid nitrogen. Ear skin biopsy punches were pulverized using FastPrep®-24 Biopulverizer (MP Biomedical, CatNo. 116004500) and Lysing Matrix A tubes (CatNo. 16910050). Protein extracts were obtained using 500 μL/tissue of cold T-PER buffer (ThermoFisher, CatNo. 78510) with Protease inhibitors (Sigma-Aldich, CatNo. 58820-20TAB). Soluble protein fractions were used to measure cytokine levels (IL-4) using ELISA kit (BD Biosciences® #555232). Results were represented as percent of inhibition relative to unsensitized and sensitized-only treated animals. Vehicle for presently disclosed compounds was 60:40 H2O:EtOH and 1:1 Acetone:EtOH for AN2718. (n=5-15 animals per treatment group).
Compound C was further analyzed at various dosages against 0.4 mg/ear of […] by the above protocol, data representing the average±S.E. of cumulative data from three independent experiments (n=12-15 mice per group) is shown below: […]

IL-10 = experiment: T-cell receptor (anti-CD3/CD28)-induced IL-10 on PBMCs; format: cell-based; conditions: Homo sapiens, PBMC, anti-CD3/CD28 beads, 24 hours, ELISA, read-out: TCR-PBMCs IL-10 Protein IC50
Experimental: as §2

IL-5 = experiment: T-cell receptor (anti-CD3/CD28)-induced IL-5 on PBMCs; format: cell-based; conditions: Homo sapiens, PBMC, anti-CD3/CD28 beads, 24 hours, ELISA, read-out: TCR-PBMCs IL-5 Protein IC50
Experimental: as §2

| SMILES | inhibition at 30 pM (CXCL8 (IL-8)) [%] | MIC (P. acnes (ATCC 6919)) [µg/mL] | inhibition at 30 pM (IL1B (IL-1b)) [%] | inhibition at 30 pM (IL17A (IL-17A)) [%] | inhibition at 30 pM (TNF (TNF-α)) [%] | IC50 (IL-4) [µM] | inhibition in vivo at 3 % strength (Balb/C mice) [%] | IC50 (IL-10) [µM] | IC50 (IL-5) [µM] |
| --- | --- | --- | --- | --- | --- | --- | --- | --- | --- |
| CC(=O)NC(CC(=O)NC(CSC/C=C(\C)CCCC(C)CCCC(C)CCCC(C)C)C(=O)O)C(=O)O (stereo not shown) [Q] | 14 | 125 (≈ 224 µM) | 59 | 72 | 0 |  |  |  |  |
| C/C(=C\CSCC(NC(=O)CCCCCCCCC(=O)O)C(=O)O)CCCC(C)CCCC(C)CCCC(C)C (stereo not shown) [D] |  | > 250 |  |  |  | > 100 | 53 | 100 | > 100 |
| CCN(CC(=O)O)C(=O)NC(CSC/C=C(\C)CCCC(C)CCCC(C)CCCC(C)C)C(=O)O (stereo not shown) [I] | 52 | > 16 | 86 | 7 | 0 |  | 36 |  |  |
